Source: ChEMBL document CHEMBL4184104, “Identification of novel allosteric inhibitors of mutant isocitrate dehydrogenase 1 by cross docking-based virtual screening” (Bioorg Med Chem Lett, 2018)

Tests used:
[1] = tested on: Isocitrate dehydrogenase [NADP] cytoplasmic (Homo sapiens), O75874 [R132H]; assay: Inhibition of IDH1 R132H mutant (unknown origin) expressed in HEK293T cells assessed as D2-HG level at 10 uM after 72 hrs relative to control; assay type: cell-based; settings: values are per cent of control
Sequence of Isocitrate dehydrogenase [NADP] cytoplasmic (Homo sapiens), O75874 [R132H] (O75874 whole entry R132H): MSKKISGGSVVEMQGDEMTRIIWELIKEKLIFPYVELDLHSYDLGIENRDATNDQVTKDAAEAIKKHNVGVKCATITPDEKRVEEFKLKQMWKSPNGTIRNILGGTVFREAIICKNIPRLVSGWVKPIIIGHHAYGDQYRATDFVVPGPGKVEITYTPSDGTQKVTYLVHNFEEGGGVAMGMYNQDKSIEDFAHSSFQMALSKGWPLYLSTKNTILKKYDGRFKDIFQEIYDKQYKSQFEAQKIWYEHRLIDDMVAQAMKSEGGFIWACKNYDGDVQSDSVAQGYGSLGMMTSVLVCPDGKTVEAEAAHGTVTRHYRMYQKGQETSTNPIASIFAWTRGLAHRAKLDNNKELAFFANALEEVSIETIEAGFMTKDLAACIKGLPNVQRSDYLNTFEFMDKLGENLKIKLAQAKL

[2] = tested on: Isocitrate dehydrogenase [NADP] cytoplasmic (Homo sapiens), O75874 [R132H]; assay: Inhibition of IDH1 R132H mutant (unknown origin) expressed in HEK293T cells assessed as D2-HG level at 50 uM after 72 hrs relative to control; assay type: cell-based; settings: values are per cent of control
[3] = tested on: Isocitrate dehydrogenase [NADP] cytoplasmic (Homo sapiens), O75874 [R132C]; assay: Inhibition of IDH1 R132C mutant (unknown origin) expressed in HEK293T cells assessed as D2-HG level at 10 uM after 72 hrs relative to control; assay type: cell-based; settings: values are per cent of control
Sequence of Isocitrate dehydrogenase [NADP] cytoplasmic (Homo sapiens), O75874 [R132C] (O75874 whole entry R132C): as the sequence (O75874 whole entry R132H) above, with H132C counted along it

[4] = tested on: Isocitrate dehydrogenase [NADP] cytoplasmic (Homo sapiens), O75874 [R132C]; assay: Inhibition of IDH1 R132C mutant (unknown origin) expressed in HEK293T cells assessed as D2-HG level at 50 uM after 72 hrs relative to control; assay type: cell-based; settings: values are per cent of control
[5] = Cytotoxicity against HEK293T cells harboring pMXs-IDH1wt-IRES-BsdRs assessed as cell survival at 10 uM after 72 hrs by CellTiterGlo assay relative to control; assay type: cell-based, HEK-293T; settings: human, read-out: Survival
[6] = (§1) Cytotoxicity against HEK293T cells harboring pMXs-IDH1wt-IRES-BsdRs assessed as cell survival at 50 uM after 72 hrs by CellTiterGlo assay relative to control; assay type: cell-based, HEK-293T; settings: human, HEK293T cells harboring pMXs-IDH1wt-IRES-BsdRs; read-out: Survival
[7] = Effective permeability of the compound at 25 ug/ml after 18 hrs by BBB-PAMPA method; assay type: ADME; settings: read-out: Peff
HEK-293T = assay: as §1; assay type: cell-based; settings: human, hek-293t, 72 h, 50 µM
[8] = target: Isocitrate dehydrogenase [NADP] cytoplasmic (Homo sapiens, UniProt O75874, R132H); assay: Inhibition of IDH1 R132H mutant (unknown origin) expressed in HEK293T cells assessed as reduction in D2-HG level after 30 mins by resazurin-based fluorescence assay; assay type: cell-based
Sequence of Isocitrate dehydrogenase [NADP] cytoplasmic (Homo sapiens, UniProt O75874, R132H) (O75874 2-414 R132H limits assumed): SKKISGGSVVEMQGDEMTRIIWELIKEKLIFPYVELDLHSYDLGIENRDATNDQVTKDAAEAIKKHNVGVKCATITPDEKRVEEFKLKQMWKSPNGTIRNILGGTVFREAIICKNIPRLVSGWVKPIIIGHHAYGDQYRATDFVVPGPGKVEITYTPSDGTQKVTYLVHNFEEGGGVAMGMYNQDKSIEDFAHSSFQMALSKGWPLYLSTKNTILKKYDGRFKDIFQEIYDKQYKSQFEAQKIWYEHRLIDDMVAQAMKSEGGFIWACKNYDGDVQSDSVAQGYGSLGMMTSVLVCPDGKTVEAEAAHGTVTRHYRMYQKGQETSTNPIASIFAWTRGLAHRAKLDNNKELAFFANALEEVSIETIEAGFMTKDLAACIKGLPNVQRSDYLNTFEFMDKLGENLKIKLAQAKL

[9] = target: Isocitrate dehydrogenase [NADP] cytoplasmic (Homo sapiens, UniProt O75874, R132C); assay: Inhibition of IDH1 R132C mutant (unknown origin) expressed in HEK293T cells assessed as reduction in D2-HG level after 30 mins by resazurin-based fluorescence assay; assay type: cell-based
Sequence of Isocitrate dehydrogenase [NADP] cytoplasmic (Homo sapiens, UniProt O75874, R132C) (O75874 2-414 R132C limits assumed): as the sequence (O75874 2-414 R132H limits assumed) above, with H131C counted along it

Compound | response, % of control [1] [%] | response, % of control [2] [%] | response, % of control [3] [%] | response, % of control [4] [%] | IC50 [8] [µM] | IC50 [9] [µM] | viability at 72 h, 10 µM [5] [%] | viability at 72 h, 50 µM [6] [%] | Papp at 18 h, 25 ug/ml [7] [×10⁻⁶ cm/s] | Activity (HEK-293T)
CC(C)CCOc1cccc(C(=O)Nc2ccc(C(=O)Nc3cccc4ccccc34)cc2)c1 | 54.9 | 49.5 | 48.4 | 43.6 | – | – | 91.3 | 88.6 | 8.15 | –
COc1cccc(C(=O)Nc2cccc(OCC(=O)c3ccccc3)c2)c1 | 94.6 | 73.7 | 138 | 103 | – | – | – | – | – | Non-Toxic
Cc1ccccc1C(C(=O)NC1CCCCC1)N(C(=O)Cn1ccnc1C)c1cccc(F)c1 (configuration not stated) | 1.3 | 0.4 | 13.3 | 0.9 | – | – | – | – | – | –
O=C(Nc1cccc(NC(=O)c2cccc(S(=O)(=O)N3CCCCC3)c2)c1)c1ccc(Br)cc1 | 58.2 | 59.5 | 61.1 | 109 | – | – | – | – | – | Non-Toxic

More lines, main results first:

response, % of control [1] [%] | response, % of control [2] [%] | response, % of control [3] [%] | response, % of control [4] [%] | IC50 [8] [µM] | IC50 [9] [µM] | Compound | viability at 72 h, 10 µM [5] [%] | viability at 72 h, 50 µM [6] [%] | Papp at 18 h, 25 ug/ml [7] [×10⁻⁶ cm/s] | Activity (HEK-293T)
91.3 | 39.9 | 79.3 | 40.9 | – | – | CC(O)c1cccc(NC(=O)c2cnn3c2NC(c2ccccc2)CC3C(F)(F)F)c1 (configuration not stated) | – | – | – | Non-Toxic
103 | 72.5 | – | 52.7 | – | – | Cc1ccc(NC(=O)c2cc([N+](=O)[O-])cc3c2-c2ccc([N+](=O)[O-])cc2C3=O)cc1 | – | – | – | Non-Toxic
– | – | – | – | 50 | 50 | COC(=O)C1C(=O)C2=C(CC1C)Nc1ccccc1NC2c1c[nH]c2ccccc12 (configuration not stated) | – | – | – | –
86.2 | 66.3 | 86.1 | 50.4 | – | – | COC(=O)c1ccccc1NC(=O)CNCn1cnc2ccccc21 | – | – | – | Non-Toxic
96.7 | 32 | 123 | 34.7 | – | – | COc1ccccc1NC(=O)c1c(NCc2cccnc2)sc2c1CC[C@H](C)C2 | – | – | – | Non-Toxic
